# Source: patent US20240400604A1, “NUCLEOSIDE TRIPHOSPHATE PHOTOAFFINITY PROBE, METHOD FOR PREPARING SAME, AND APPLICATIONS THEREOF” (SHANDONG UNIVERSITY, priority 2023, published 2024)
# Assays:
# [1] = target: T1, VRK1 (Homo sapiens, UniProt Q99986); experiment: Identification of ATP-N probe-modified site by LC-MS/MS; details: close to ATP-binding pocket, FIG. 26b
# T1 construct: in the samples of HEK 293T cell lysates labeled with the ATP-N probe; endogenous in cells; host or cells: HEK 293T cell lysate
# T1 sequence (Q99986 1-396): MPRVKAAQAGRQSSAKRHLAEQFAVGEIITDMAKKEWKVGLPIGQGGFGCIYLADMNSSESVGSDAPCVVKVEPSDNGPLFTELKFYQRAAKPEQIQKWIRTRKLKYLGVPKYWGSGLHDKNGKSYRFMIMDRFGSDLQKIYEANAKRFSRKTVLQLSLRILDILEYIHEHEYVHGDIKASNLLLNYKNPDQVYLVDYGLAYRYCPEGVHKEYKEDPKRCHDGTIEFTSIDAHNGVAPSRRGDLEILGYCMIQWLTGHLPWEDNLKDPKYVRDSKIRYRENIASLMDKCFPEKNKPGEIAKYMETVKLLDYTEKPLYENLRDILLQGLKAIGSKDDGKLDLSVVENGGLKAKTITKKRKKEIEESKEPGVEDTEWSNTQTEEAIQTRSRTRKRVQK
# Description: (§1) 1 mg of cell lysate was labeled with 10 μM ATP-N probe. The subsequent steps were the same as in Section 1.3 of Example 3.
# (§2) The C18 pre-column (Thermo Fisher, 164564-CMD, 100 μm×2 cm) and analytical column (Thermo Fisher, 164941, 75 μm×25 cm) used in the LC-MS/MS analysis were commercially available. The liquid chromatography (Vanquish Neo, Thermo Fisher) settings were as follows: Solvent A was 98% H2O with 0.1% FA, and Solvent B was 98% ACN with 0.1% FA. The flow rate was 300 nL/min, with the elution gradient as follows: 0 minutes, 2% B; 5 minutes, 26% B; 127 minutes, 36% B; 137 minutes, 72% B; 142 minutes, 80% B; and 143-153 minutes, 80% B. The mass spectrometer (Orbitrap Exploris 480, Thermo Fisher) settings were: full MS scan in positive ion mode, electrospray ion source voltage 1.9 kV, ion transfer tube temperature 320° C., scan m/z range 350-1500, resolution of 120000, AGC target 300%, maximum injection time 25 ms. For dd-MS^2, resolution was 15000, AGC target 50%, maximum injection time was automatically selected, and the cycle time for MS scanning was set to 3 s. DDA mode was used for data acquisition and the data collection time was 0-142 minutes.
# (§3) The obtained MS raw files were analyzed using Proteome Discoverer 2.5 software, and searched against the Uniprot human protein database (as of November 2022, total proteins: 20401). […]
# [2] = target: T2, N-acetylglucosamine kinase (NAGK) (Homo sapiens, UniProt Q9UJ70); experiment: as above; details: near ATP-binding pocket, FIG. 26a
# T2 construct: in the samples of HEK 293T cell lysates labeled with the ATP-N probe; endogenous in cells; host or cells: HEK 293T cell lysate
# T2 sequence (Q9UJ70 whole entry): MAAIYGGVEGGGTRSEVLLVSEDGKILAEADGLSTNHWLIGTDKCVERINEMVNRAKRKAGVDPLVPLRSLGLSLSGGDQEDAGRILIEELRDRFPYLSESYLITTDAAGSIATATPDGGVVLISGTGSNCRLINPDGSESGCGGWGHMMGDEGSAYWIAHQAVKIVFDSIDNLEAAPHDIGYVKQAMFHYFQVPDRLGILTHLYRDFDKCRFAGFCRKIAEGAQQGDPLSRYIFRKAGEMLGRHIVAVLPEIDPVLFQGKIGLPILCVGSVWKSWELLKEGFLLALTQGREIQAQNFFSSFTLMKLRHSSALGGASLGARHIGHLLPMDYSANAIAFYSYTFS
# Description: as §1, §2, §3
# [3] = system: ATP-binding proteins in HEK 293T cell lysates; experiment: Proteomic LC-MS/MS (LFQ) analysis of HEK 293T cell lysates labeled with the ATP-N probe, ATP competition; parameters: species or system human
# Description: as §1, §2
# The obtained MS raw files were analyzed using Proteome Discoverer 2.5 software, and searched against the Uniprot human protein database (as of November 2022, total proteins: 20401). Enzyme specificity was set to trypsin, cysteine carbamidomethylation was set as a fixed modification, and methionine oxidation and N-terminal acetylation were set as variable modifications.
# HEK 293T cell lysates were labeled with 10 μM ATP-N probe. Labeled proteins were enriched with streptavidin beads, and digested with trypsin to prepare peptide samples for LC-MS/MS analysis. Adding 100 μM ATP as the competitor during probe labeling, the labeling of ATP-binding proteins would be interfered. Compared with the probe-labeling group without competitors, more specific ATP-binding proteins could be identified with label-free quantitative (LFQ) analysis.
# [4] = system: ATP-binding proteins in HEK 293T cell lysates; experiment: In-gel fluorescence imaging of HEK 293T cell lysates labeled with the ATP-N probe; details: FIG. 23a, in-gel fluorescence
# [5] = system: GTP-binding proteins in HEK 293T cell lysates; experiment: In-gel fluorescence imaging of HEK 293T cell lysate labeled with the GTP probes
# Description: Appropriate amount cells were incubated on ice for 30 min in 1% lysis buffer (1% Triton X-100, 50 mM HEPES (pH 7.4), 150 mM NaCl, supplemented with phosphatase inhibitor A, phosphatase inhibitor B, and protease inhibitor right before use) at 5-10 times the cell volume. Vortexing for 5 seconds every 10 minutes. The cell lysates were centrifuged at 12,000 rpm at 4° C. for 30 min, and the supernatants were passed through an Amersham NAP-5 column to remove endogenous nucleosides. The proteins were quantified using a Bradford protein assay kit. Approximately 100 μg protein was diluted with 0.1% lysis buffer (0.1% Triton X-100, 50 mM HEPES, 150 mM sodium chloride). To the solution was added 1 mM magnesium chloride, the GTP probe and competitors to designated concentrations. The final volume for the reaction was 100 μL and the final protein concentration was […]. After incubated on ice, the solution was irradiated with 365-nm UV light for 30 min. To the solution were added freshly prepared tris-(2-carboxyethyl)phosphine (TCEP) until its concentration reached 1 mM, and a CuAAC reaction mixture to reach a final concentration of 1 mM CuSO4, 0.1 mM tris[(1-benzyl-1H-1,2,3-triazol-4-yl)methyl]amine (TBTA), and 0.1 mM rhodamine β-PEG3-azide. The mixture was incubated at room temperature for 2 hrs and then precipitated in a solution of chloroform: methanol: water (4:3:1, v/v). After washing with cold methanol and air dried, the protein pellet was dissolved in 30 μL 4% SDS buffer (4% SDS, 50 mM HEPES (pH 7.4), 150 mM NaCl, 50 mM Trolamine). The protein concentration was determined using a BCA protein assay kit. A solution of approximately 20 μg proteins was added 4×loading buffer (0.25M Trometamol, pH=6.8, 4% SDS, 40% Glycerol, 0.02% bromophenol blue, add 200 μL 2-Mercaptoethanol to 800 μL buffer right before use), boiled at 95° C. for 5 min and loaded onto an SDS-PAGE gel (4% stacking gel, 10% separating gel). Then perform SDS-PAGE separation at a constant voltage of 90 V for about 110 minutes. At the end of electrophoresis, cut the separation gel and imaged with an Amersham Imager 600 (GE Healthcare) at 520 nm. The gel was then stained with Coomassie Brilliant Blue staining solution (0.1% Coomassie brilliant blue, 10% acetic acid, 50% methanol) for 30 min and destained with destaining solution (10% acetic acid, 30% methanol) to remove background color.
# [6] = system: GTP-binding proteins in HEK 293T cell lysates; experiment: Proteomic LC-MS/MS analysis of HEK 293T cell lysate labeled with GTP probes; parameters: species or system human
# Description: Under optimized conditions, HEK 293T cell lysates were labeled using the GTP photoaffinity probes. Peptide samples were prepared via the On-Beads enzymatic digestion method for proteomic study. Approximately 1 mg of proteins was labeled with 0.1 mM GTP probe and irradiated with 365-nm UV light for 30 min. To the solution were added freshly prepared tris-(2-carboxyethyl)phosphine (TCEP) until its concentration reached 1 mM, and a CuAAC reaction mixture to reach a final concentration of 1 mM CuSO4, 0.1 mM tris[(1-benzyl-1H-1,2,3-triazol-4-yl)methyl]amine (TBTA), and 0.5 mM biotin-PEG3-azide (for GTP-O probe labeled samples), or 0.5 mM biotin-DADPS-azide (for GTP-N probe labeled samples). The mixture was vortexed at room temperature for 2 hours and then precipitated in ice-cold methanol overnight.
# The precipitated proteins were dissolved in 100 μL 4% SDS buffer (4% SDS, 150 mM NaCl, 50 mM HEPES, pH=7.4), and diluted with 900 μL SDS-free HEPES buffer (150 mM NaCl, 50 mM HEPES, pH=7.4). High-capacity streptavidin beads (50 μL per sample) were washed three times with 20 times volume of wash buffer (150 mM sodium chloride, 50 mM HEPES, pH=7.4) before adding to the samples. After incubation on a rotary shaker at room temperature for 2 hours, non-specifically bound proteins were washed away in a centrifugal filtration column using 1× PBS containing 1% SDS, 10× PBS, 1× PBS, water, and 50 mM ammonium bicarbonate solution with 8 M urea, each wash using 1 mL of solution for five times. The beads were transferred to a centrifuge tube using 50 mM ammonium bicarbonate solution containing 8 M urea and resuspended with 500 μL of this solution. The disulfide bonds were reduced by adding 20 mM TCEP and incubating at 37° C. for 1 hour, and then alkylated with 50 mM iodacetamide at room temperature in the dark for 30 minutes. After centrifugation at 3000 rpm for 2 minutes, the supernatant was gently removed. The beads were washed with 25 mM ammonium bicarbonate three times, resuspended in 100 μL 25 mM ammonium bicarbonate, and incubated with 1 μg of MS-grade trypsin (1 μg/μL) at 37° C. for 18 hrs.
# The beads were washed with 200 μL of 25 mM ammonium bicarbonate solution, then centrifuged at 12000 rpm for 2 minutes to collect the supernatant. The procedure was repeated 6 times, and the supernatants were combined to obtain sample 1 (peptides without probe modification). For GTP-O probe labeled samples, the beads were resuspended in 200 μL of 70% acetonitrile solution containing 1% trifluoroacetic acid, vortexed for 5 minutes, then centrifuged at 12000 rpm for 2 minutes to collect the supernatant. The procedure was repeated 5 times, and the supernatants were combined to obtain sample 2 (containing probe-modified peptides). For GTP-N probe labeled samples, the beads were resuspended in 100 μL of 10% formic acid, incubated on a rotary shaker at room temperature for 30 minutes, then centrifuged at 12000 rpm for 2 minutes to collect the supernatant. The procedure was repeated 3 times, and the supernatants were combined. Trifluoroacetic acid was added to a final concentration of 1%, and incubated at 37° C. for 30 minutes to obtain sample 2. The peptide solutions were dried with a centrifugal concentrator and desalted using C18 tips, then frozen at −80° C. until LC-MS/MS detection. Samples were dissolved in 20 μL of pure water, 4 μL of sample 1 and 8 μL of sample 2 were injected for analysis.
# An EASY-nLC 1200 liquid chromatography coupled with a Q-Exactive Orbitrap mass spectrometer was employed for LC-MS/MS analysis. A homemade C18 capillary column (inner diameter 75 μm, column length 18 cm) packed with Reprosil-Pur120 C18-AQ (Dr. maisch, particle size […]) was utilized as the separation column. The precolumn (inner diameter 150 μm, column length 4 cm) was packed with Reprosil-Pur120 C18-AQ (Dr. maisch, particle size 5 μm,). The mobile phase A was 0.1% formic acid, while mobile phase B was 0.1% formic acid in 80% acetonitrile, and the flow rate was 300 nL/min. […]
# [7] = Stability analysis of the probes under three pH conditions with HPLC; type: physicochemical; details: acidic condition with trifluoroacetic acid (pH=3), 0.4 mM probe, 37° C.
# Description: Probes were incubated with 0.4 mM final concentration in different buffer at 37° C. for different time, and 10 μL of solution was taken out at each time point for HPLC analysis. A analytical column (Welch, Ultimate XB-C18, 5 μm, 4.6×250 mm) was used for the analysis, and untreated probes were used as controls. The mobile phase A was 50 mM […] (TEAA) buffer (pH=8), the mobile phase B was 50 mM TEAA in 30% ACN, the flow rate was 1 mL/min, the detection wavelength was 252 nm, and the column temperature was 30° C. Gradient elution conditions were as follows: 0-5 minutes, 5% B; 5-10 minutes, 5-30% B; 10-30 minutes, 30-40% B; 30-35 minutes, 40-100% B; 35-40 minutes, 100% B; 45-50 minutes, 5% B.
# [8] = system: ATP-binding proteins, including kinases; experiment: Staurosporine competitive ATP-N probe labeling of cell lysates, LC-MS/MS; parameters: species or system human; details: staurosporine at 1×, 10×, 20× concentration of the ATP-N probe; one biological replicate
# Description: The preparation of mass spectrometry samples was the same as in Section 1.3 of Example 7, except that ATP was replaced with different concentrations of staurosporine.
# Prior to probe labeling, cell lysates were pre-incubated on ice with staurosporine at 1×, 10×, and 20× concentration of the ATP-N probe, and compared with the control group without staurosporine treatment. Potential target proteins of kinase inhibitors were screened based on the abundance ratio between the competition group and the control group through LC-MS/MS analysis. Theoretically, as the concentration of the inhibitor increases, the labeling efficiency of its target proteins should gradually decrease. Therefore, proteins were screened based on their abundance ratios ([…]), identifying proteins whose detected abundance decreased with increasing inhibitor concentrations. Proteins with lower confidence were filtered out, leaving proteins that met the criteria for further analysis. Most proteins with reduced labeling efficiency after staurosporine treatment were ATP-binding proteins, including kinases, and this trend increased with higher inhibitor concentrations. […] Since the data presented in this example represent only one biological replicate, there may be some errors. Typically, using the average values and p-values from three biological replicates would yield more reliable results.
# [9] = GO-MF analysis of screened proteins
# [10] = three biological replicates, 0.1 mM probe, control probe = GTP-ctrl probe
compound,measurement,setting,value
C#CCCC1(CCNP(=O)(O)OP(=O)(O)OP(=O)(O)OC[C@H]2O[C@@H](n3cnc4c(N)ncnc43)C(O)[C@H]2O)N=N1 (stereo partly shown) [ATP-N probe],probe-labeled residue,[1],Glu73
same,probe-modified residue,[2],Glu16
same,proteins with significantly decreased intensity in the ATP competition group,"[3]; 10 μM probe, 100 μM ATP, all three replicates, ratio>2, p-value<0.05",More than 160
same,"of these, kinases",[3]; [9],around 78
same,"of these, previously annotated ATP-binding proteins",[3]; [9],approximately 129
same,share of annotated ATP-binding proteins among all screened proteins,[3]; [9],over 80%
same,"proteins with significantly decreased intensity in the competition group, probe-modified peptides","[3]; quantitative analysis of probe-modified peptides, all three replicates, ratio>2, p-value<0.05",About 44
same,lowest probe concentration showing clear fluorescent bands,[4],1 µM
C#CCCC1(CCNP(=O)(O)OP(=O)(O)OP(=O)(O)OC[C@H]2O[C@@H](n3cnc4c(=O)[nH]c(N)nc43)C(O)[C@H]2O)N=N1 (stereo partly shown) [GTP-N probe],protein labeling (in-gel fluorescence),"[5]; 0.1 mM probe, 1 mM MgCl2, FIG. 10a",stronger protein labeling compared to the GTP-O probe
same,probe concentration at which cell lysate is effectively labeled,"[5]; FIG. 9a (GTP-N probe), 365 nm UV, in-gel fluorescence",50 µM
same,probe-modified sites on labeled proteins,[6]; LC-MS/MS of sample 2 (probe-modified peptides),several modified peptides of GTP-binding proteins were identified
same,selectivity for annotated GTP-binding proteins,"[6]; competition with GTP at 10 times probe concentration, LFQ, three biological replicates",better selectivity than the GTP-O probe
same,GTP-binding proteins identified,[6]; [10],115
same,total proteins identified,[6]; [10],2461
same,time after which probe decomposed,[7],0.5 h
"CN[C@@H]1C[C@H]2O[C@@](C)([C@@H]1OC)n1c3ccccc3c3c4c(c5c6ccccc6n2c5c31)C(=O)NC4 [staurosporine, Staurosporine]",proteins with significantly reduced ATP-N probe labeling in the competition group,[8],several known staurosporine targets were identified
